From US9883691B2, “Food and beverage products containing 1,3-propanediol and methods of modifying flavor release using 1,3-propanediol” (Kraft Foods Group Brands LLC, priority 2012, dated 2018)
Where a name gives a salt, the structure may show the parent alone.

Experiments:
[1] = not marked (est); cited from earlier work
[2] = PTR-MS real-time headspace release, watermelon flavor model in water (Example 1); type: physicochemical; parameters: Sample A (PG) Mean / Sample B (1,3-propanediol) Mean: unit not given here
Protocol: The impact of 1,3-propanediol on the release of flavor compounds can be analyzed by Proton Transfer Reaction Mass Spectrometry (PTR-MS; model TOF-8000 from Ionicon Analytik Inc.), where real-time headspace release of volatiles is measured. A sampling apparatus is needed in conjunction with the PTR-MS inlet to prevent variations caused by headspace kinetics. By one exemplary approach, the sampling apparatus includes a 4 ounce sample vessel equipped with a 2-hole lid which may be sealed by an adhesive film to allow equilibration. […]. The holes are equal sized (˜2 mm diameter) and match the outer diameter of the PTR-MS inlet line. The flow of the dilution gas into the vessel is regulated by the vacuum and proportional valve of the PTR-MS inlet system. The sample vessel has a base diameter of 47 mm and is 45 mm high, of which 8 mm of height is occupied by the sample in the vessel in these experiments. The 2 holes in the lid are equidistant from the edge of the vessel (˜20 mm) and about 30 mm from each other. The PTR-MS inlet is braced by clamps in a fixed position vertically above the laboratory bench (˜55 mm) and a silicone rubber depth gauge is affixed to the PTR-MS inlet tubing and set at 18 mm. The PTR-MS inlet is thus consistently oriented in a vertical position 18 mm below the inside lid of the vessel and 19 mm above the sample in the vessel. The sample vessel is then held in place during sampling according to the depth gauge on the inlet line and the vessel is subsequently supported on the bench by a 10 mm plastic spacer.
15 grams of the sample to be tested (e.g., food or beverage product containing 1,3-propanediol) are added to the vessel. The vessel is sealed and allowed to equilibrate at room temperature (˜22° C.) for 90 minutes. At the time of sampling, the seal is removed from both the sampling hole and the dilution gas hole in the lid and the vessel is immediately affixed to the PTR-MS inlet via the sampling hole. The real-time released flavor is measured from the headspace of the sample vessel for two minutes (according to the conditions listed in Table 1 below). A comparative sample is prepared that is otherwise identical to the test sample but contains propylene glycol or water instead of 1,3-propanediol. The comparative sample is then analyzed in triplicate by PTR-MS using the above-described procedure. The data can be analyzed using PTR-MS Viewer, Version 3.0.0.101 (Ionicon Analytik G.m.b.H). The point of maximum intensity for each compound of interest can be determined and recorded according to the PTR-MS Viewer software. The maximum intensity in counts over the timescale for each compound of interest can be used for data analysis as it reflects the static equilibrium headspace concentration in the system at the moment of seal removal. Due to the necessity of a dilution gas, the volatile concentration decreases over time as the compounds of interest re-equilibrate to a state of dynamic equilibrium in the headspace.
[…]. Sample A was prepared with 20 grams watermelon flavor concentrate and 80 grams propylene glycol. Sample B was prepared with 20 grams watermelon flavor concentrate and 80 grams 1,3-propanediol. Each of the samples was further diluted by adding 0.08 grams of each diluted concentrate to 99.92 grams water to provide a flavor water solution.
The diluted samples were analyzed by Proton Transfer Reaction Mass Spectrometry (PTR-MS; model TOF-8000 from Ionicon Analytik Inc.) for real-time headspace release volatiles measurement. Samples were analyzed in triplicate. […]. […].

In the case of `CCOC=O` [Ethyl formate], the “logP (o/w)” value [1] is listed as 0.23, the “Sample B (1,3-propanediol) Mean” value ([2]; PTR-MS headspace, watermelon flavor concentrate in 1,3-propanediol, diluted in water, 90 minutes equilibration, mean of three) is listed as 41.67 and the “Sample A (PG) Mean” value ([2]; PTR-MS headspace, watermelon flavor concentrate in propylene glycol, diluted in water, 90 minutes equilibration, mean of three) is listed as 50.50. The “Percent Release Difference” value ([2]; Sample B (1,3-propanediol) relative to Sample A (PG)) was −17.5%.
